Test results reported in PubChem BioAssay AID2060497 (Molecular Pharmacology Branch, DTP, NCI, 2025).

Tested on: 317291-083-R-J1-PDC complex spheroids, viability
Experiment: Anticancer human tumor 317291-083-R-J1-PDC patient-derived soft tissue sarcoma cell line growth inhibition [GQUAD]
Details: for IC50: curve of first compound; for viability, T/C: stronger effect = lower value; active means viability on the fitted dose curve at most 10% of control; inactive means the rest
Procedure, shortened: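 Multi-cell-type spheroids of tumor cells with HUVEC and mesenchymal stem cells, treated with drug combinations. Concentrations descend in half-log steps from near clinical Cmax, or from 10 microM where Cmax is unknown; viability read-out.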

[1] = second compound 0.0316 µM, first compound 0.0316 µM
[2] = second compound 0.0316 µM, first compound 0.316 µM
[3] = second compound 0.1 µM, first compound 0.0316 µM
[4] = second compound 0.1 µM, first compound 0.316 µM
[5] = second compound 0.316 µM, first compound 0.0316 µM
[6] = second compound 0.316 µM, first compound 0.316 µM
[7] = second compound 1 µM, first compound 0.0316 µM
[8] = second compound 1 µM, first compound 0.316 µM
[9] = second compound 3.16 µM, first compound 0.0316 µM
[10] = second compound 3.16 µM, first compound 0.316 µM
[11] = second compound 10 µM, first compound 0.0316 µM
[12] = second compound 10 µM, first compound 0.316 µM
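Further: spheroids exposed to compounds for one week before readout.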
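Wherever viability, T/C is given: percent viability relative to DMSO vehicle wells taken as 100%.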

CC[C@@]1(O)C(=O)OCc2c1cc1n(c2=O)Cc2cc3c(CN(C)C)c(O)ccc3nc2-1 + CN(C)c1ccc(Nc2c3ccc(NC(=O)CCN4CCCC4)cc3nc3cc(NC(=O)CCN4CCCC4)ccc23)cc1
inactive: viability, T/C (second compound 0.0316 µM, first compound 0.000999 µM) 99.5% | viability, T/C (second compound 0.0316 µM, first compound 0.00316 µM) 98.3% | viability, T/C (second compound 0.0316 µM, first compound 0.00999 µM) 109% | viability, T/C [1] 70.3% | viability, T/C (second compound 0.0316 µM, first compound 0.0999 µM) 29% | viability, T/C [2] 16.7% | viability, T/C (second compound 0.1 µM, first compound 0.000999 µM) 95% | viability, T/C (second compound 0.1 µM, first compound 0.00316 µM) 85.4% | viability, T/C (second compound 0.1 µM, first compound 0.00999 µM) 94% | viability, T/C [3] 65.5% | viability, T/C (second compound 0.1 µM, first compound 0.0999 µM) 26.9% | viability, T/C [4] 15.9% | viability, T/C (second compound 0.316 µM, first compound 0.000999 µM) 79.8% | viability, T/C (second compound 0.316 µM, first compound 0.00316 µM) 90.8% | viability, T/C (second compound 0.316 µM, first compound 0.00999 µM) 74.7% | viability, T/C [5] 42.6% | viability, T/C (second compound 0.316 µM, first compound 0.0999 µM) 28.9% | viability, T/C [6] 14.9% | viability, T/C (second compound 1 µM, first compound 0.000999 µM) 49% | viability, T/C (second compound 1 µM, first compound 0.00316 µM) 42.6% | viability, T/C (second compound 1 µM, first compound 0.00999 µM) 48.5% | viability, T/C [7] 36.7% | viability, T/C (second compound 1 µM, first compound 0.0999 µM) 18.1% | viability, T/C (second compound 3.16 µM, first compound 0.000999 µM) 28.4% | viability, T/C (second compound 3.16 µM, first compound 0.00316 µM) 24.1% | viability, T/C (second compound 3.16 µM, first compound 0.00999 µM) 22.8% | viability, T/C [9] 15.4% | viability, T/C (second compound 3.16 µM, first compound 0.0999 µM) 11.5% | viability, T/C (second compound 10 µM, first compound 0.000999 µM) 9.99% | viability, T/C (second compound 10 µM, first compound 0.00316 µM) 16.1%
54.9 nM: IC50 (second compound 0.0316 µM)
< 0.999 nM: IC50 (second compound 1 µM) | IC50 (second compound 3.16 µM) | IC50 (second compound 10 µM)
active: viability, T/C [8] 9.13% | viability, T/C [10] 9.22% | viability, T/C (second compound 10 µM, first compound 0.00999 µM) 5.13% | viability, T/C [11] 5.79% | viability, T/C (second compound 10 µM, first compound 0.0999 µM) 8.35% | viability, T/C [12] 4.27%
50.5 nM: IC50 (second compound 0.1 µM)
25.9 nM: IC50 (second compound 0.316 µM)

CC1COCCN1c1cc(-c2ccnn2C)c2ccnc(-c3ccn[nH]3)c2n1 (centres undefined) + Cc1cnc(CNC(=O)c2c(=O)c3ccc(N4CCCN(C)CC4)nc3n3c2sc2ccccc23)cn1
inactive: viability, T/C [1] 49.6% | viability, T/C (second compound 0.0316 µM, first compound 0.1 µM) 19.1% | viability, T/C [2] 13% | viability, T/C (second compound 0.0316 µM, first compound 1 µM) 10.9% | viability, T/C (second compound 0.0316 µM, first compound 3.16 µM) 23.9% | viability, T/C (second compound 0.0316 µM, first compound 10 µM) 12.7% | viability, T/C [3] 59% | viability, T/C (second compound 0.1 µM, first compound 0.1 µM) 12.5% | viability, T/C [4] 9.96% | viability, T/C (second compound 0.1 µM, first compound 1 µM) 15.6% | viability, T/C (second compound 0.1 µM, first compound 3.16 µM) 11.6% | viability, T/C (second compound 0.1 µM, first compound 10 µM) 11.4% | viability, T/C [5] 35.6% | viability, T/C (second compound 0.316 µM, first compound 0.1 µM) 14.6% | viability, T/C [6] 12.3% | viability, T/C (second compound 0.316 µM, first compound 1 µM) 11% | viability, T/C (second compound 0.316 µM, first compound 3.16 µM) 13.2% | viability, T/C (second compound 0.316 µM, first compound 10 µM) 16.6% | viability, T/C [7] 25.1% | viability, T/C (second compound 1 µM, first compound 0.1 µM) 25.1% | viability, T/C [8] 11.3% | viability, T/C (second compound 1 µM, first compound 1 µM) 9.59% | viability, T/C (second compound 1 µM, first compound 3.16 µM) 20.1% | viability, T/C (second compound 1 µM, first compound 10 µM) 11.5% | viability, T/C [9] 11.3% | viability, T/C (second compound 3.16 µM, first compound 0.1 µM) 8.19% | viability, T/C [10] 9.69% | viability, T/C (second compound 3.16 µM, first compound 1 µM) 12.1% | viability, T/C (second compound 3.16 µM, first compound 3.16 µM) 17.1% | viability, T/C (second compound 3.16 µM, first compound 10 µM) 11.5% | viability, T/C [11] 11.8% | viability, T/C (second compound 10 µM, first compound 0.1 µM) 11.6% | viability, T/C [12] 13.7% | viability, T/C (second compound 10 µM, first compound 1 µM) 8.98% | viability, T/C (second compound 10 µM, first compound 3.16 µM) 11.4% | viability, T/C (second compound 10 µM, first compound 10 µM) 18.6%
39.5 nM: IC50 (second compound 0.1 µM)
< 31.6 nM: IC50 (second compound 0.0316 µM) | IC50 (second compound 0.316 µM) | IC50 (second compound 1 µM) | IC50 (second compound 3.16 µM) | IC50 (second compound 10 µM)
